US4231928A, “Antibacterial agents” (priority 1979, dated 1980)
Read-outs that look alike come from different tables or passages of the source.

Tests used:
S. aureus = assay: Serial twofold agar dilution (Mueller-Hinton agar), S. aureus; format: cell-based; details: Staphylococcus aureus
Method: (§1) The Minimum Inhibitory Concentrations (MIC) for sodium 6-[D-(-)-α-phenyl-α-(7-hydroxy-4-oxo-4H-pyrimido[1,2-b]pyridazin-3-ylcarboxamido)acetamido]penicillanate (BB-P598) and sulbenicillin were determined by the serial twofold agar dilution method using Steers' apparatus on Mueller-Hinton agar plates against 31 test organisms for the primary screening (Table 1) and also against 61 strains of Pseudomonas aeruginosa for the secondary evaluation (Table 2).
(§2) Minimum Inhibitory Concentrations (MIC) for sodium 6-[D-(-)-α-phenyl-α-(7-hydroxy-4-oxo-4H-pyrimido[1,2-b]pyridazin-3-ylcarboxamido)acetamido]pencillanate (BB-P598), sodium 6-[D-(-)-α-(4-hydroxyphenyl)-α-(7-hydroxy-4-oxo-4H-pyrimido[1,2-b]pyridazin-3-ylcarboxamido)acetamido]-penicillanate (BB-P642) and carbenicillin were determined by the serial twofold agar dilution method using Steers' apparatus on Mueller-Hinton agar plates against 31 tests organisms (Table 8) and also against 61 strains of Pseudomonas aeruginosa (Table 9). In terms of mean % relative activity compared with carbenicillin, compounds BB-B598 and BB-P642 were 856% and 1319% as active as carbenicillin against the 61 Pseudomonas strains of Table 9.

E. coli = assay: Serial twofold agar dilution (Mueller-Hinton agar), E. coli; format: cell-based; details: Escherichia coli
Method: as §1, §2

K. pneumoniae = assay: Serial twofold agar dilution (Mueller-Hinton agar), K. pneumoniae; format: cell-based; details: Klebsiella pneumoniae, K. pneumoniae A9977, Table 8, read-out: MIC
Method: as §1, §2

Klebsiella sp. = assay: Serial twofold agar dilution (Mueller-Hinton agar), Klebsiella sp.; format: cell-based; details: Klebsiella sp. A20452, Mueller-Hinton agar, Table 8, read-out: MIC
Method: as §1, §2

E. cloacae = assay: Serial twofold agar dilution (Mueller-Hinton agar), E. cloacae; format: cell-based; details: Enterobacter cloacae
Method: as §1, §2

P. mirabilis = assay: Serial twofold agar dilution (Mueller-Hinton agar), P. mirabilis; format: cell-based; details: Proteus mirabilis
Method: as §1, §2

P. vulgaris = assay: Serial twofold agar dilution (Mueller-Hinton agar), P. vulgaris; format: cell-based; details: Proteus vulgaris, P. vulgaris A9539, Table 8, read-out: MIC
Method: as §1, §2

P. morganii = assay: Serial twofold agar dilution (Mueller-Hinton agar), P. morganii; format: cell-based; details: Morganella morganii, P. morganii A9553, Table 8, read-out: MIC
Method: as §1, §2

S. enteritidis = assay: Serial twofold agar dilution (Mueller-Hinton agar), S. enteritidis; format: cell-based; details: Salmonella enterica, S. enteritidis A9531, Table 8, read-out: MIC
Method: as §1, §2

S. marcescens = assay: Serial twofold agar dilution (Mueller-Hinton agar), S. marcescens; format: cell-based; details: Serratia marcescens, S. marcescens A20019, Table 8
Method: as §1, §2

Pseudomonas aeruginosa = assay: Serial twofold agar dilution (Mueller-Hinton agar), P. aeruginosa; format: cell-based; details: for MIC: Pseudomonas aeruginosa
Method: as §1, §2

Pseudomonas sp. = assay: Serial twofold agar dilution (Mueller-Hinton agar), Pseudomonas sp.; format: cell-based; details: Pseudomonas sp. A20358, Table 8, read-out: MIC
Method: as §1, §2

[1] = Mouse blood levels after subcutaneous administration; details: in vivo, sc, 20 mg/kg
Method: Mouse blood levels of BB-[…] and BB-[…] were determined by subcutaneous administration of 20 mg/kg of the penicillin to groups of three mice. Blood samples collected from orbital sinuses were assayed by the paper disk agar-diffusion method on Sarcina lutea PC1 1001 plates.

Structure (SMILES): CC1(C)S[C@@H]2[C@H](NC(=O)[C@H](NC(=O)c3cnc4ccc(O)nn4c3=O)c3ccc(O)cc3)C(=O)N2[C@H]1C(=O)O [BB-P642, Sodium 6-[D-(-)-α-(4-hydroxyphenyl)-α-(7-hydroxy-4-oxo-4H-pyrimido[1,2-b]pyridazin-3-ylcarboxamido)acetamido]-penicillanate]
- MIC (S. aureus; S. aureus A15097, Table 8, read-out: MIC): > 100 µg/mL
- MIC (S. aureus; S. aureus A20239, Table 8, read-out: MIC): 25 µg/mL
- MIC (S. aureus; S. aureus A20240, Table 8, read-out: MIC): 12.5 µg/mL
- MIC (S. aureus; S. aureus A20701, Table 8, read-out: MIC): > 100 µg/mL
- MIC (S. aureus; S. aureus BX-1633 A9606, Table 8, read-out: MIC): 25 µg/mL
- MIC (S. aureus; S. aureus Smith A9537, Table 8, read-out: MIC): 3.1 µg/mL
- MIC (E. coli; E. coli A9635, Table 8, read-out: MIC): 12.5 µg/mL
- MIC (E. coli; E. coli A9844, Table 8, read-out: MIC): 3.1 µg/mL
- MIC (E. coli; E. coli A20366, Table 8, read-out: MIC): > 100 µg/mL
- MIC (E. coli; E. coli A20520, Table 8, read-out: MIC): 6.3 µg/mL
- MIC (E. coli; E. coli A20664, Table 8, read-out: MIC): 1.6 µg/mL
- MIC (E. coli; E. coli A20732, Table 8, read-out: MIC): 100 µg/mL
- MIC (E. coli; E. coli A20898, Table 8, read-out: MIC): > 100 µg/mL
- MIC (E. coli; E. coli Juhl A15119, Table 8, read-out: MIC): 6.3 µg/mL
- MIC (E. coli; E. coli NIHJ, Table 8, read-out: MIC): 3.1 µg/mL
- MIC (K. pneumoniae): 6.3 µg/mL
- MIC (Klebsiella sp.): 12.5 µg/mL
- MIC (E. cloacae; E. cloacae A9656, Table 8): 25 µg/mL
- MIC (E. cloacae; E. cloacae A9657, Table 8): 100 µg/mL
- MIC (E. cloacae; E. cloacae A9659, Table 8): 25 µg/mL
- MIC (P. mirabilis): 3.1 µg/mL
- MIC (P. vulgaris): 50 µg/mL
- MIC (P. morganii): > 100 µg/mL
- MIC (S. enteritidis): 3.1 µg/mL
- MIC (S. marcescens): > 100 µg/mL
- Mean % relative activity compared with carbenicillin (Pseudomonas aeruginosa; 61 strains of P. aeruginosa, Table 9): 1319%
- MIC (Pseudomonas aeruginosa; 61 strains of P. aeruginosa, Table 9, read-out: Geometric mean of MIC): 2.27 µg/mL
- MIC (Pseudomonas aeruginosa; A20229, Mueller-Hinton agar, Table 8, read-out: MIC): 0.4 µg/mL
- MIC (Pseudomonas aeruginosa; ATCC19660, Pa-14 ATCC 19660 A20325, Mueller-Hinton agar, Table 9, read-out: MIC): 1.6 µg/mL
- MIC (Pseudomonas aeruginosa; GN315, Pa-27 GN315 A21294, Mueller-Hinton agar, Table 9, read-out: MIC): 0.8 µg/mL
- MIC (Pseudomonas aeruginosa; GN4925, Pa-45 GN 4925, Mueller-Hinton agar, Table 9, read-out: MIC): 3.1 µg/mL
- MIC (Pseudomonas aeruginosa; P. aeruginosa A9843, Mueller-Hinton agar, Table 8, read-out: MIC): 1.6 µg/mL
- MIC (Pseudomonas aeruginosa; P. aeruginosa A9930, Mueller-Hinton agar, Table 8, read-out: MIC): 1.6 µg/mL
- MIC (Pseudomonas aeruginosa; P. aeruginosa A15150, Mueller-Hinton agar, Table 8, read-out: MIC): 0.8 µg/mL
- MIC (Pseudomonas aeruginosa; P. aeruginosa A20717, Mueller-Hinton agar, Table 8, read-out: MIC): 3.1 µg/mL
- MIC (Pseudomonas aeruginosa; Pa-2 V.A A9923, Mueller-Hinton agar, Table 9, read-out: MIC): 1.6 µg/mL
- MIC (Pseudomonas aeruginosa; Pa-3 1449 V.A A9930, Mueller-Hinton agar, Table 9, read-out: MIC): 1.6 µg/mL
- MIC (Pseudomonas aeruginosa; Pa-4 H9, D113 A21295, Mueller-Hinton agar, Table 9, read-out: MIC): 3.1 µg/mL
- MIC (Pseudomonas aeruginosa; Pa-5 M4865, K.C A15150, Mueller-Hinton agar, Table 9, read-out: MIC): 1.6 µg/mL
- MIC (Pseudomonas aeruginosa; Pa-6 No. 5 Levitan A15194, Mueller-Hinton agar, Table 9, read-out: MIC): 12.5 µg/mL
- MIC (Pseudomonas aeruginosa; Pa-10 A21479, Mueller-Hinton agar, Table 9, read-out: MIC): > 100 µg/mL
- MIC (Pseudomonas aeruginosa; Pa-11 A20616, Mueller-Hinton agar, Table 9, read-out: MIC): 1.6 µg/mL
- MIC (Pseudomonas aeruginosa; Pa-12 A20653, Mueller-Hinton agar, Table 9, read-out: MIC): 1.6 µg/mL
- MIC (Pseudomonas aeruginosa; Pa-15 A20717, Mueller-Hinton agar, Table 9, read-out: MIC): 6.3 µg/mL
- MIC (Pseudomonas aeruginosa; Pa-16 #130 A20718, Mueller-Hinton agar, Table 9, read-out: MIC): 0.4 µg/mL
- MIC (Pseudomonas aeruginosa; Pa-17 H6, D114, Mueller-Hinton agar, Table 9, read-out: MIC): 3.1 µg/mL
- MIC (Pseudomonas aeruginosa; Pa-18 H8, D121, Mueller-Hinton agar, Table 9, read-out: MIC): 0.4 µg/mL
- MIC (Pseudomonas aeruginosa; Pa-19 A20229, Mueller-Hinton agar, Table 9, read-out: MIC): 0.8 µg/mL
- MIC (Pseudomonas aeruginosa; Pa-20 A20325, Mueller-Hinton agar, Table 9, read-out: MIC): 1.6 µg/mL
- MIC (Pseudomonas aeruginosa; Pa-21 A20601, Mueller-Hinton agar, Table 9, read-out: MIC): 1.6 µg/mL
- MIC (Pseudomonas aeruginosa; Pa-23 A20741, Mueller-Hinton agar, Table 9, read-out: MIC): 1.6 µg/mL
- MIC (Pseudomonas aeruginosa; Pa-24 A20896, Mueller-Hinton agar, Table 9, read-out: MIC): > 100 µg/mL
- MIC (Pseudomonas aeruginosa; Pa-25 A20897, Mueller-Hinton agar, Table 9, read-out: MIC): 1.6 µg/mL
- MIC (Pseudomonas aeruginosa; Pa-26 PS32, Mueller-Hinton agar, Table 9, read-out: MIC): 12.5 µg/mL
- MIC (Pseudomonas aeruginosa; Pa-28 C.P.H. 10527/72, Mueller-Hinton agar, Table 9, read-out: MIC): 1.6 µg/mL
- MIC (Pseudomonas aeruginosa; Pa-29 D122, Mueller-Hinton agar, Table 9, read-out: MIC): 1.6 µg/mL
- MIC (Pseudomonas aeruginosa; Pa-30 A20600, Mueller-Hinton agar, Table 9, read-out: MIC): 1.6 µg/mL
- MIC (Pseudomonas aeruginosa; Pa-31 A20594, Mueller-Hinton agar, Table 9, read-out: MIC): 0.4 µg/mL
- MIC (Pseudomonas aeruginosa; Pa-32 A20595, Mueller-Hinton agar, Table 9, read-out: MIC): 1.6 µg/mL
- MIC (Pseudomonas aeruginosa; Pa-33 A20598, Mueller-Hinton agar, Table 9, read-out: MIC): 0.8 µg/mL
- MIC (Pseudomonas aeruginosa; Pa-34 A20603, Mueller-Hinton agar, Table 9, read-out: MIC): 0.8 µg/mL
- MIC (Pseudomonas aeruginosa; Pa-36, Mueller-Hinton agar, Table 9, read-out: MIC): 0.8 µg/mL
- MIC (Pseudomonas aeruginosa; Pa-37 A20130, Mueller-Hinton agar, Table 9, read-out: MIC): 1.6 µg/mL
- MIC (Pseudomonas aeruginosa; Pa-38 A20349, Mueller-Hinton agar, Table 9, read-out: MIC): 6.3 µg/mL
- MIC (Pseudomonas aeruginosa; Pa-39 A20641, Mueller-Hinton agar, Table 9, read-out: MIC): 0.8 µg/mL
- MIC (Pseudomonas aeruginosa; Pa-41 A21227, Mueller-Hinton agar, Table 9, read-out: MIC): 1.6 µg/mL
- MIC (Pseudomonas aeruginosa; Pa-42 A21229, Mueller-Hinton agar, Table 9, read-out: MIC): 12.5 µg/mL
- MIC (Pseudomonas aeruginosa; Pa-43 A21233, Mueller-Hinton agar, Table 9, read-out: MIC): 1.6 µg/mL
- MIC (Pseudomonas aeruginosa; Pa-44 A21274, Mueller-Hinton agar, Table 9, read-out: MIC): 1.6 µg/mL
- MIC (Pseudomonas aeruginosa; Pa-51 A9910, Mueller-Hinton agar, Table 9, read-out: MIC): 1.6 µg/mL
- MIC (Pseudomonas aeruginosa; Pa-52 A9926, Mueller-Hinton agar, Table 9, read-out: MIC): 3.1 µg/mL
- MIC (Pseudomonas aeruginosa; Pa-53 A20126, Mueller-Hinton agar, Table 9, read-out: MIC): 1.6 µg/mL
- MIC (Pseudomonas aeruginosa; Pa-54 A20128, Mueller-Hinton agar, Table 9, read-out: MIC): 3.1 µg/mL
- MIC (Pseudomonas aeruginosa; Pa-55 A20227, Mueller-Hinton agar, Table 9, read-out: MIC): 3.1 µg/mL
- MIC (Pseudomonas aeruginosa; Pa-56 A20228, Mueller-Hinton agar, Table 9, read-out: MIC): 1.6 µg/mL
- MIC (Pseudomonas aeruginosa; Pa-57 A20546, Mueller-Hinton agar, Table 9, read-out: MIC): 1.6 µg/mL
- MIC (Pseudomonas aeruginosa; Pa-58 A20557, Mueller-Hinton agar, Table 9, read-out: MIC): 3.1 µg/mL
- MIC (Pseudomonas aeruginosa; Pa-59 A20574, Mueller-Hinton agar, Table 9, read-out: MIC): 0.8 µg/mL
- MIC (Pseudomonas aeruginosa; Pa-60 A20602, Mueller-Hinton agar, Table 9, read-out: MIC): 1.6 µg/mL
- MIC (Pseudomonas aeruginosa; Pa-61 A20726, Mueller-Hinton agar, Table 9, read-out: MIC): 3.1 µg/mL
- MIC (Pseudomonas aeruginosa; Pa-62 A21213, Mueller-Hinton agar, Table 9, read-out: MIC): > 100 µg/mL
- MIC (Pseudomonas aeruginosa; Pa-64 A21336, Mueller-Hinton agar, Table 9, read-out: MIC): 0.8 µg/mL
- MIC (Pseudomonas aeruginosa; Pa-65 A21428, Mueller-Hinton agar, Table 9, read-out: MIC): 1.6 µg/mL
- MIC (Pseudomonas aeruginosa; Pa-66 A21434, Mueller-Hinton agar, Table 9, read-out: MIC): 3.1 µg/mL
- MIC (Pseudomonas aeruginosa; Pa-67 A21509, Mueller-Hinton agar, Table 9, read-out: MIC): 3.1 µg/mL
- MIC (Pseudomonas aeruginosa; Pa-68 A21510, Mueller-Hinton agar, Table 9, read-out: MIC): 3.1 µg/mL
- MIC (Pseudomonas aeruginosa; Pa-69 A21587, Mueller-Hinton agar, Table 9, read-out: MIC): 3.1 µg/mL
- MIC (Pseudomonas aeruginosa; Pa-70 K-PS102 (KR-102), Mueller-Hinton agar, Table 9, read-out: MIC): 1.6 µg/mL
- MIC (Pseudomonas sp.): 0.4 µg/mL
- concentration at 0.25 h [1]: 18000 ng/mL
- concentration at 0.5 h [1]: 13500 ng/mL
- concentration at 1 h [1]: 5200 ng/mL
